Read-outs that look alike come from different tables or passages of the source. [ ]: non-standard residue; d: D form. pGlu = O=C1CC[C@@H](C(=O)O)N1

Usually Ki stands for a measure of affinity in units of concentration, obtained from inhibition or displacement. Low readings indicate tighter binding, high ones weaker binding.

For series [1], the system named is adult male and female sea lamprey. Conditions: compared to controls, cited from earlier work; for spawning behavior: experiment 2, females.
In another series the test system is adult sea lampreys. To be noted: cited from earlier work; for ovulation / timing of ovulation: female lampreys; for gametogenesis: male and female sea lampreys, previous studies; for plasma estradiol: adult female lampreys, injections.
Series [2] can be described thus: Plasma GnRHa after injection of sustained-release microspheres or implants in lampreys. In kind it is in vivo, sea lamprey. On the procedure: Thus, experiments were conducted to determine the optimal injection site and delivery agent that would best ensure a slow, constant release of the active compound, in this case, D-Ala^6 Pro^9Net mammal GnRH (GnRHa) over a period of four weeks. In the plasma, GnRH is easily degraded by protolytic enzymes. Therefore a simple injection will not elevate plasma GnRH levels for the duration of time required to ensure the appropriate reproductive effect. If a GnRH analog were used to sterilize wild fish, the method would have to maintain high levels of GnRH in the plasma for the length of the spawning season, or about 6 weeks in the case of sea lamprey in the Great Lakes. It was believed that controlled release of GnRH could be attained by injection of biodegradable microspheres or implants containing a GnRH analog, and experiments were performed to determine if high enough GnRH levels could be maintained for the required duration using such a method.
In Applicant's experiments microspheres (in a dose of 75 ug GnRHa/lamprey) and 2 mm implants were injected either intramuscularly (IM) or intraperitoneally (IP). At week 1, plasma GnRHa was detected in two-thirds of the lampreys injected IP, either with microspheres (5.0+/−1.3 ng/ml) or implants (1.6+/−0.3 ng/ml).
Only the lampreys injected IM with microspheres still had detectable levels of GnRHa after 3 weeks (2.9+/−1.5 ng/ml). Based on the results of these experiments, the best method of sustained release of GnRHa was determined to be via IM injection using microspheres.

In series [3] the target is type-II GnRH binding site. Description: Competition binding in pituitary of male sea lampreys, type-II GnRH binding site. More on the design: species or system P. marinus. Conditions: for Ki: pituitary of adult male land-locked P. marinus, tracer iodinated [DAla6, Pro9Net]-mammalian GnRH, K1 from IC50. On the procedure: (§1) In another study, the binding affinity in the pituitary of male sea lampreys was determined with lamprey GnRH-I and -III analogs in an effort to better understand the structure-activity relations of the lamprey GnRH molecule (Mateme and Sower, unpublished). Competition studies were performed using the iodinated DAla^6, Pro^9Net]-mammalian GnRH as the tracer with each of the following analogs: [D-Phe^2, Gly^6]-lGnRH-I (Peninsula Labs, Cali.); and the following lGnRH-III analogs: [D-Phe^2,6, Pro^3], [D-Phe^2, Gly^6], and [Ac-Delta-3Pro, 4FDPhe^2-D-Trp^3,6] from American Peptide, Cali. […] The level of significance was P<0.0001 See TABLE 5 for the results of these experiments. The results shown in Table 5 summarize experiments using various analogs.
(§2) Inhibition constants (K1) of lamprey GnRH-putative antagonists in the pituitary of adult male land-locked P. marinus. […] The data were plotted on a logit-log plot and the K1 determined from the IC50 using the Prism software.

Another series has as its target type-I GnRH-binding site. Briefly: Competition binding in pituitary of male sea lampreys, type-I GnRH binding site. The arrangement: species or system P. marinus. Conditions: for Ki: pituitary of adult male land-locked P. marinus, tracer iodinated [DAla6, Pro9Net]-mammalian GnRH, K1 from IC50. On the procedure:
as §1, §2

[4] abbreviates: pituitary of male sea lampreys, in words.

Take [D-Phe^2,6, Pro^3] lamprey GnRH: the spawning behavior entry in series [1] is on record as “inhibited”. Moreover, the spawning activity entry in series [1] (experiment 2, males) is recorded as “stimulated earlier spawning activity”. Further, the spawning activity result in series [1] (experiment 3, males) was “induced earlier spawning activity”. In addition, in the series on adult sea lampreys, the “ovulation / timing of ovulation” value is “inhibited ovulation” and the gametogenesis result was “decrease gametogenesis”. Moreover, in the series on adult sea lampreys (male sea lampreys), the plasma progesterone levels result is given as “reduced” and the spermiation result is listed as “inhibited spermiation”.

In the case of “[Ac-3 Pro^1, 4-FD-Phe^3, D-Trp^3,6] mammalian GnRH”, in the series on adult sea lampreys, the plasma estradiol entry is given as “no apparent effect”, the “ovulation / timing of ovulation” value is recorded as “no apparent effect” and the gametogenesis entry is recorded as “decrease gametogenesis”.

Regarding “[D-Ala^6, Pro^9 Net lamprey GnRH] [lamprey GnRH agonist]”, in series [1], the spawning behavior result is “inhibited”. The spawning activity entry was “stimulated earlier spawning activity” in series [1] (experiment 2, males) and “inhibited spawning activity” in series [1] (experiment 3, males).

Take `CCNC(=O)[C@@H]1CCCN1C(=O)[C@H](CCCNC(=N)N)NC(=O)[C@H](CC(C)C)NC(=O)[C@@H](C)NC(=O)[C@H](Cc1ccc(O)cc1)NC(=O)[C@H](CO)NC(=O)[C@H](Cc1c[nH]c2ccccc12)NC(=O)[C@H](Cc1c[nH]cn1)NC(=O)[C@@H]1CCC(=O)N1` [[DAla^6, Pro^9Net]-m GnRH, [DAla^6, Pro^9Net]-mammalian GnRH]: the plasma estradiol result with adult sea lampreys is on record as “significantly elevated”. Further, the “ovulation / timing of ovulation” value in the series with adult sea lampreys is on record as “advanced ovulation by at least several weeks”. In series [2] (plasma, 75 ug GnRHa/lamprey, after 3 weeks, microspheres injected IM), this compound came in with a level at 504 h of 2.9 ng/mL. In addition, the level at 168 h in series [2] (plasma, 75 ug GnRHa/lamprey, week 1, microspheres injected IM) was found to be 4.2 ng/mL; in series [2] (plasma, week 1, 2 mm implants injected IP), 1.6 ng/mL; in series [2] (plasma, week 1, microspheres injected IP, 75 ug GnRHa/lamprey), 5 ng/mL. The compound further displayed a level at 336 h in series [2] (plasma, 75 ug GnRHa/lamprey, week 2, microspheres injected IM) of 3.1 ng/mL. The “share of lampreys with detectable plasma GnRHa” value in series [2] (week 1, injected IP, microspheres or implants) is recorded as “two-thirds”; in series [2] (week 1, microspheres injected IM), “Ninety percent”; in series [2] (week 2, IP with microspheres and IP with implants) it was “less than thirty percent”; in series [2] (week 2, microspheres injected IM), “ninety-two percent”. Further, the inhibition constant Ki turned out to be 89 nM in series [3] and 0.00311 nM on type-I GnRH-binding site. The “affinity for type-II GnRH binding site” value in series [3] (setting [4]) is “high affinity”. Also, the “affinity for type-I GnRH binding site” value in the series on type-I GnRH-binding site (setting [4]) is on record as “high affinity”.

As to “[D-Phe^2, Gly^6]-lGnRH-I [[D-Phe^2, Gly^6]-1GnRH-I]”, the Ki in series [3] amounted to 5650 nM; at type-I GnRH-binding site, 1.37 nM.

As for “lamprey GnRH-I: native decapeptide pGlu His Tyr Ser Leu Glu Trp Lys Pro Gly-NH2 (Table 1) ([pGlu]HYSLEWKPG-NH2; SMILES CC(C)C[C@H](NC(=O)[C@H](CO)NC(=O)[C@H](Cc1ccc(O)cc1)NC(=O)[C@H](Cc1c[nH]cn1)NC(=O)[C@@H]1CCC(=O)N1)C(=O)N[C@@H](CCC(=O)O)C(=O)N[C@@H](Cc1c[nH]c2ccccc12)C(=O)N[C@@H](CCCCN)C(=O)N1CCC[C@H]1C(=O)NCC(N)=O)”, the spawning activity result in series [1] (experiment 3, males) is “delayed spawning activity”. Further, in the series with adult sea lampreys (adult sea lampreys), the spermiation/ovulation result is reported as “induce” and the steroidogenesis result is given as “induce”.

Source of the values: patent US7521057B2, “Lamprey GnRH-III polypeptides and methods of making thereof” (University of New Hampshire, priority 2002, dated 2009).
